This is an account of results in PMC2997942 (Molecular pharmaceutics, 2010).

Like-named read-outs stand apart in the source and are kept apart here.

In general, Ki refers to the equilibrium dissociation constant of an inhibitor or competing ligand from its target. Usually Cmax stands for the peak of the concentration-time curve.

Data set [1] concerns the target T1, OCTN2 (Homo sapiens, UniProt O76082).
T1 sequence (O76082 1-557): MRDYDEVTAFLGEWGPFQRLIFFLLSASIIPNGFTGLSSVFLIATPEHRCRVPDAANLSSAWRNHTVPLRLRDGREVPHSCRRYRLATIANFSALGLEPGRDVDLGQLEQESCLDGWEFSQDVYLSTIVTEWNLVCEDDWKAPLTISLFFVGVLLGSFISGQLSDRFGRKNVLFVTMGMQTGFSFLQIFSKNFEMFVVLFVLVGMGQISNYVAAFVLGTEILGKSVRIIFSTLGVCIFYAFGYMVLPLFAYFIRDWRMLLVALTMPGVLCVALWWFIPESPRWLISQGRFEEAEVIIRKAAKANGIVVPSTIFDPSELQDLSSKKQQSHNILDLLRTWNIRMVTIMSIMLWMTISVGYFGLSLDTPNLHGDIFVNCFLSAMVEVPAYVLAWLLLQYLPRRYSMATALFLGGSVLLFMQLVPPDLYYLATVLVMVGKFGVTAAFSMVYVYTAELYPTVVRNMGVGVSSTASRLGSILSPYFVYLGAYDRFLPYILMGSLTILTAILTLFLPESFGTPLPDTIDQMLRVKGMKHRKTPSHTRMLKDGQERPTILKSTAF
As to the kind of experiment: Inhibition of L-carnitine uptake in stably transfected hOCTN2-MDCK cells. The format is cell-based. To be noted: Observed Ki (±SEM), test set, 10 min, competitive inhibition model.

The conditions of data set [2]: clinical; ref Supplemental Table S6 references 1-19; cited from earlier work.
The target in data set [3] is T1, OCTN2. The note with it: hOCTN2-Transfected MDCKII Cells, cited from earlier work; for Ki: read-out: Ki or IC50.
In data set [4] the target is T1, OCTN2. The note with it: read-out: Ki or IC50; Caki-1 (human proximal tubule cell line); cited from earlier work.
The next data set has as its target human OCTN2. To be noted: read-out: Ki or IC50; Hela with human OCTN2; cited from earlier work.
The target in data set [5] is T1, OCTN2. The note with it: read-out: Ki or IC50; BeWo (human placental cell line); cited from earlier work.
Data set [6] concerns the target rat OCTN2. To be noted: L6 stable cell line with rat OCTN2; cited from earlier work.
In data set [7] the target is T1, OCTN2. To be noted: read-out: Ki or IC50; L6 cells overexpressing hOCTN2; cited from earlier work.
For data set [8] the following is noted: in vivo; cited from earlier work.
Data set [9] has as its target OCTN2. To be noted: Mouse enterocyte; cited from earlier work.
For data set [10], the target named is rat OCTN2. The note with it: read-out: Ki or IC50; HEK stable cell line with rat OCTN2; cited from earlier work.
The subject of data set [11] is Mouse myoblastic C2C12 cells. The note with it: read-out: Ki or IC50; cited from earlier work.

The compound `COC(=O)[C@H]1[C@H]2C[C@@H]3c4[nH]c5cc(OC)ccc5c4CCN3C[C@H]2C[C@@H](OC(=O)c2cc(OC)c(OC)c(OC)c2)[C@@H]1OC` [Reserpine] returned a Ki on OCTN2 [1] of 32.2 ± 4.8 µM. Further, the “Documented to cause rhabdomyolysis and/or carnitine deficiency in the literature” value (shortened to “Documented”) in [2] is on record as “No”.

Take `COCCc1ccc(OCC(O)CNC(C)C)cc1` (stereo not shown) [Metoprolol]: the “Ki or IC50” value at OCTN2 [3] is given as “Not inhibitor”.

Regarding `CCCC[N+]1(C)C2CC(OC(=O)C(CO)c3ccccc3)CC1C1OC12` (single isomer, unassigned; (-)) [(−)-N- butylscopolamine], at OCTN2 [4], the Ki was 1010 µM.

`CCCC(=O)Nc1ccc(OCC(O)CNC(C)C)c(C(C)=O)c1` (stereo not shown) [Acebutolol]: the “Ki or IC50” value at OCTN2 [3] was “Not inhibitor”. In addition, in data set [2], the “Documented” value is “No”.

For `CO/N=C(\C(=O)N[C@@H]1C(=O)N2C(C(=O)[O-])=C(C[N+]3(C)CCCC3)CS[C@H]12)c1csc(N)n1` [Cefepime], the inhibitory constant (Ki) at human OCTN2 was 1700 µM.

`Cc1c(F)c(N2CCNC(C)C2)cc2c1c(=O)c(C(=O)O)cn2C1CC1` (stereo not shown) [Grepafloxacin]: on OCTN2 [5], the Ki was 300 µM.

For the compound `CC12CC3CC(C)(C1)CC(N)(C3)C2` [Memantine], the “Ki or IC50” value at OCTN2 [3] is recorded as “Not inhibitor”. The “Documented” value in data set [2] was “No”.

Take `O=C(O)COCCN1CCN(C(c2ccccc2)c2ccc(Cl)cc2)CC1` (stereo not shown) [Cetirizine]: the “Documented” value in [2] is recorded as “No”.

On to `O=C1[O][Pt]2([NH][C@@H]3CCCC[C@H]3[NH]2)[O]C1=O` [Oxaliplatin], for which the “Ki or IC50” value on rat OCTN2 [6] was “Not inhibitor”. The “Documented” value in data set [2] is given as “No”.

At OCTN2 [1], `CNC(=C[N+](=O)[O-])NCCSCc1csc(CN(C)C)n1` [Nizatidine] displayed a Ki of 183 ± 17 µM. The “Documented” value in data set [2] is recorded as “No”.

In the case of `CN/C(=N/CCSCc1nc[nH]c1C)NC#N` [Cimetidine], the “Documented” value in data set [2] was “No”.

`Cc1nnc(SCC2=C(C(=O)O)N3C(=O)[C@@H](NC(=O)Cn4cnnn4)[C@H]3SC2)s1` [Cefazolin]: the Ki on OCTN2 [7] was 6740 µM.

In turn, `CCc1c2c(nc3ccc(OC(=O)N4CCC(N5CCCCC5)CC4)cc13)-c1cc3c(c(=O)n1C2)COC(=O)[C@]3(O)CC` [Irinotecan] yielded a Ki on OCTN2 [1] of 219 ± 18 µM.

Consider `CC(C)c1nc(CN(C)C(=O)N[C@H](C(=O)N[C@@H](Cc2ccccc2)C[C@H](O)[C@H](Cc2ccccc2)NC(=O)OCc2cncs2)C(C)C)cs1` [Ritonavir], for which the “Documented” value in data set [2] was “Yes with statin[5]”.

With `N.N.[Cl][Pt][Cl]` [Cisplatin], at rat OCTN2 [6], the “Ki or IC50” value was “Not inhibitor”. In data set [2], the “Documented” value was “Yes[19]”. The Cmax in [8] is 8130 nM.

For the compound `CCCN(CCC)S(=O)(=O)c1ccc(C(=O)O)cc1` [Probenecid], on OCTN2 [9], the “Ki or IC50” value is given as “Not inhibitor”. Further, the “Documented” value in data set [2] is “No”.

On to `CCN(CC)CC(=O)Nc1c(C)cccc1C` [Lidocaine], for which the “Ki or IC50” value on OCTN2 [9] was “Not inhibitor”. For the same compound, the “Documented” value in [2] is recorded as “No”.

In the case of `O=C(Cc1cccs1)N[C@@H]1C(=O)N2C(C(=O)[O-])=C(C[n+]3ccccc3)CS[C@H]12` [Cephaloridine], the Ki on human OCTN2 is 230 µM.

For `CC[C@]1(O)C[C@H]2CN(CCc3c([nH]c4ccccc34)[C@@](C(=O)OC)(c3cc4c(cc3OC)N(C=O)[C@H]3[C@@](O)(C(=O)OC)[C@H](OC(C)=O)[C@]5(CC)C=CCN6CC[C@]43[C@@H]65)C2)C1` [Vincristine], the “Documented” value in data set [2] was “Yes[8]”.

As to `C[N+](C)(C)NCCC(=O)[O-]` [Mildronate], the Ki at OCTN2 [3] is 26 µM. Also, in [2], the “Documented” value is “No”.

As to `CN(C)C(=N)N=C(N)N` [Metformin], on OCTN2 [4], the inhibition constant (Ki) was 4960 µM. Also, the “Documented” value in [2] is “Yes[14]”.

In the case of `Nc1c2c(nc3ccccc13)CCCC2` [Tacrine], on rat OCTN2 [10], the inhibitory constant (Ki) is 500 µM. The highest concentration (Cmax) in data set [8] is 134 nM.

On to `CC(=O)S[C@@H]1CC2=CC(=O)CC[C@]2(C)[C@H]2CC[C@@]3(C)[C@@H](CC[C@@]34CCC(=O)O4)[C@H]12` [Spironolactone], for which, on OCTN2 [3], the Ki is 26 µM. Also, in [2], the “Documented” value is “No”.

Take Ciclotropium: the Ki on OCTN2 [4] is 30 µM. For the same compound, in data set [2], the “Documented” value is listed as “No”. The Cmax in data set [8] was 20.6 nM.

Regarding `NC(N)=Nc1nc(CSCCC(N)=NS(N)(=O)=O)cs1` [Famotidine], at OCTN2 [4], the Ki is 1920 µM. Moreover, the “Documented” value in [2] is “Yes[18]”.

Turning to `C[C@H]1O[C@@H](O[C@H]2[C@@H](O)C[C@H](O[C@H]3[C@@H](O)C[C@H](O[C@H]4CC[C@@]5(C)[C@H](CC[C@@H]6[C@@H]5C[C@@H](O)[C@]5(C)[C@@H](C7=CC(=O)OC7)CC[C@]65O)C4)O[C@@H]3C)O[C@@H]2C)C[C@H](O)[C@@H]1O` [Digoxin], the “Ki or IC50” value at OCTN2 [3] is listed as “Not inhibitor”.

Take `CO/N=C(\C(=O)N[C@@H]1C(=O)N2C(C(=O)O)=C(COC(N)=O)CS[C@H]12)c1ccco1` [Cefuroxime]: the Ki on OCTN2 [7] was 525 µM. Besides, the “Documented” value in data set [2] is “Yes[9]”.

As for `CCC1=C[C@@H]2CN(C1)Cc1c([nH]c3ccccc13)[C@@](C(=O)OC)(c1cc3c(cc1OC)N(C)[C@H]1[C@@](O)(C(=O)OC)[C@H](OC(C)=O)[C@]4(CC)C=CCN5CC[C@]31[C@@H]54)C2` [Vinorelbine], the Ki on OCTN2 [1] was 26.8 ± 1.5 µM. The “Documented” value in [2] was “No”.

Regarding `COc1cc(N)c(Cl)cc1C(=O)NC1CCN(CCCOc2ccc(F)cc2)CC1OC` (stereo not shown) [Cisapride], on OCTN2 [1], the affinity, expressed as Ki, was 66.7 ± 9.8 µM. In addition, the “Documented” value in data set [2] is “Yes[13]”.

For the compound `CCCC(CCC)C(=O)O` [Valproic acid], the “Documented” value in data set [2] is “Yes[1]”.

`COc1cccc2c1C(=O)c1c(O)c3c(c(O)c1C2=O)C[C@@](O)(C(C)=O)C[C@@H]3O[C@H]1C[C@H](N)[C@H](O)[C@H](C)O1` [Daunorubicin] displayed a Ki at OCTN2 [1] of 502 ± 41 µM. In data set [2], the “Documented” value was “No”.

In the case of `CO/N=C(\C(=O)N[C@@H]1C(=O)N2C(C(=O)[O-])=C(C[n+]3ccc(N)n3CCO)CS[C@H]12)c1csc(N)n1` [Cefoselis], the Ki on human OCTN2 was 6400 µM. For the same compound, in [2], the “Documented” value was “Yes[3]”.

With `Cc1nc2n(c(=O)c1CCN1CCC(c3noc4cc(F)ccc34)CC1)CCCC2` [Risperidone], the “Documented” value in data set [2] was “Yes with statin[17]”.

The compound `O=C1[C@H](CC[C@H](O)c2ccc(F)cc2)[C@@H](c2ccc(O)cc2)N1c1ccc(F)cc1` [Ezetimibe] registered a Ki on OCTN2 [1] of 29.3 ± 5 µM. Moreover, the “Documented” value in data set [2] was “Yes with statin[15]”.

Compound `OC1(c2ccc(Cl)c(C(F)(F)F)c2)CCN(CCCC(c2ccc(F)cc2)c2ccc(F)cc2)CC1` [Penfluridol] gave a Ki on OCTN2 [1] of 26.5 ± 4.1 µM. Moreover, in data set [2], the “Documented” value was “No”.

`NS(=O)(=O)c1cc(C(=O)O)c(NCc2ccco2)cc1Cl` [Furosemide]: the “Documented” value in data set [2] is “No”.

On to `CC[C@H]1OC(=O)[C@H](C)[C@@H](O[C@H]2C[C@@](C)(OC)[C@@H](O)[C@H](C)O2)[C@H](C)[C@@H](O[C@@H]2O[C@H](C)C[C@H](N(C)C)[C@H]2O)[C@](C)(O)C[C@@H](C)/C(=N\OCOCCOC)[C@H](C)[C@@H](O)[C@]1(C)O` [Roxithromycin], for which, at OCTN2 [1], the Ki worked out at 333 ± 25 µM. Besides, the “Documented” value in data set [2] was “Yes with statin[10]”.

Take `C[C@H](CS)C(=O)N1CCC[C@H]1C(=O)O` [Captopril]: the “Ki or IC50” value on OCTN2 [3] is recorded as “Not inhibitor”.

As for `Cc1cn([C@H]2C[C@H](N=[N+]=[N-])[C@@H](CO)O2)c(=O)[nH]c1=O` [Zidovudine], the Ki in data set [11] is 6 µM.

Consider `NCC1(CC(=O)O)CCCCC1` [Gabapentin], for which the “Documented” value in data set [2] is on record as “No”.
